This note sets out measurements from US10562897B2, “Substituted 3,4-dihydro-2H-pyrido[1,2-a]pyrazine-1,6-diones as gamma secretase modulators” (Janssen Pharmaceutica NV, priority 2014, dated 2020).

The subject of data set [1] is Aβ42. As to the kind of experiment: In vivo efficacy: brain level of soluble Aβ42, non-transgenic rodents, single oral dose 30 mg/kg, 4 h, MSD electrochemiluminescence, untreated control = 100. The arrangement: species or system mouse. The settings on record: Mus musculus, sc, 30 mpk sc, read-out: Aβ42 (% vs Ctrl) _Mean. The source says: (§1) To determine whether acute administration of an Aβ42 lowering agent would reduce Aβ42 levels in vivo, non-transgenic rodents, e.g. mice or rats were used. Animals treated with the Aβ42 lowering agent were examined and compared to those untreated or treated with vehicle and brain levels of soluble Aβ42, Aβ40, Aβ38, and Aβ37 were quantitated by Meso Scale Discovery's (MSD) electrochemiluminescence detection technology. Treatment periods varied from hours (h) to days and were adjusted based on the results of the Aβ42 lowering once a time course of onset of effect could be established.
(§2) A typical protocol for measuring Aβ42 lowering in vivo is shown but it is only one of many variations that could be used to optimize the levels of detectable Aβ. For example, Aβ42 lowering compounds were formulated in 20% of Captisol® (a sulfobutyl ether of β-cyclodextrin) in water or 20% hydroxypropyl β cyclodextrin. The Aβ42 lowering agents were administered as a single oral dose or by any acceptable route of administration to overnight fasted animals. After 4 h, the animals were sacrificed and Aβ42 levels were analysed.
(§3) Blood was collected by decapitation and exsanguinations in EDTA-treated collection tubes. Blood was centrifuged at 1900 g for 10 minutes (min) at 4° C. and the plasma recovered and flash frozen for later analysis. The brain was removed from the cranium and hindbrain. The cerebellum was removed and the left and right hemisphere were separated. The left hemisphere was stored at −18° C. for quantitative analysis of test compound levels. The right hemisphere was rinsed with phosphate-buffered saline (PBS) buffer and immediately frozen on dry ice and stored at −80° C. until homogenization for biochemical assays.
(§4) Mouse brains from non-transgenic animals were resuspended in 8 volumes of 0.4% DEA (diethylamine)/50 mM NaCl containing protease inhibitors (Roche-11873580001 or 04693159001) per gram of tissue, e.g. for 0.158 g brain, add 1.264 ml of 0.4% DEA. All samples were homogenized in the FastPrep-24 system (MP Biomedicals) using lysing matrix D (MPBio #6913-100) at 6 m/s for 20 seconds. Homogenates were centrifuged at 20800×g for 5 min and supernatants collected. Supernatants were centrifuged at 221.300×g for 50 min. The resulting high speed supernatants were then transferred to fresh eppendorf tubes. Nine parts of supernatant were neutralized with 1 part 0.5 M Tris-HCl pH 6.8 and used to quantify Aβ.
(§5) To quantify the amount of Aβ42, Aβ40, Aβ38, and Aβ37 in the soluble fraction of the brain homogenates, simultaneous specific detection of Aβ42, Aβ40, Aβ38, and Aβ37 was performed using MSD's electro-chemiluminescence multiplex detection technology. In this assay purified monoclonal antibodies specific for Abeta37 (JRD/Aβ37/3), Abeta38 (J&JPRD/Aβ38/5), Abeta40 (JRF/cAβ40/28), and Abeta42 (JRF/cAβ42/26) were coated on MSD 4-plex plates. Briefly, the standards (a dilution of synthetic Aβ42, Aβ40, Aβ38, and Aβ37) were prepared in 1.5 ml Eppendorf tube in Ultraculture, with final concentrations ranging from 10000 to 0.3 pg/m. The samples and standards were co-incubated with Sulfo-tag labelled JRF/rAß/2 antibody to the N-terminus of Aβ as detector antibody. 50 μl of conjugate/sample or conjugate/standards mixtures were then added to the antibody-coated plate. The plate was allowed to incubate overnight at 4° C. in order to allow formation of the antibody-amyloid complex. Following this incubation and subsequent wash steps the assay was finished by adding read buffer according to the manufacturer's instructions (Meso Scale Discovery, Gaitherburg, Md.).
(§6) The SULFO-TAG emits light upon electrochemical stimulation initiated at the electrode. MSD Sector instrument SI6000 was used for signal read-out.
In this model a Aß42 lowering compared to untreated animals would be advantageous, in particular a Aß42 lowering with at least 10%, more in particular a Aß42 lowering with at least 20%. […]

Data set [2] concerns Aβ40. As to the kind of experiment: In vivo efficacy: brain level of soluble Aβ40, non-transgenic rodents, single oral dose 30 mg/kg, 4 h, MSD electrochemiluminescence, untreated control = 100. Further details: species or system mouse. The following applies: Mus musculus, sc, 30 mpk sc (footnote *), read-out: Aβ40 (% vs Ctrl) _Mean.
Description: as §1, §2, §3, §4, §5
The SULFO-TAG emits light upon electrochemical stimulation initiated at the electrode. MSD Sector instrument SI6000 was used for signal read-out. […]

For data set [3], the system named is Aβ38. As to the kind of experiment: In vivo efficacy: brain level of soluble Aβ38, non-transgenic rodents, single oral dose 30 mg/kg, 4 h, MSD electrochemiluminescence, untreated control = 100. Further details: species or system mouse. The following applies: Mus musculus, sc, 30 mpk sc, read-out: Aβ38 (% vs Ctrl) _Mean.
Description: To determine whether acute administration of an Aβ38 increasing agents would increase Aβ38 levels in vivo, non-transgenic rodents, e.g. mice or rats were used. Animals treated with the Aβ38 increasing agents were examined and compared to those untreated or treated with vehicle and brain levels of soluble Aβ42, Aβ40, Aβ38, and Aβ37 were quantitated by MSD electrochemiluminescence detection technology.
Treatment periods varied from hours (h) to days and were adjusted based on the results of the Aβ38 increase once a time course of onset of effect could be established.
A typical protocol for measuring Aβ38 increase in vivo is shown but it is only one of many variations that could be used to optimize the levels of detectable Aβ. For example, Aβ38 increasing agents were formulated in 20% of Captisol® (a sulfobutyl ether of β-cyclodextrin) in water or 20% hydroxypropyl β cyclodextrin. The Aβ38 increasing agents were administered as a single oral dose or by any acceptable route of administration to overnight fasted animals. After 4 h, the animals were sacrificed and Aβ38 levels were analysed.
as §3, §4
as §5, with “[…].” for “pg/m.”
as §6
In this model a Aß38 increase compared to untreated animals would be advantageous, in particular a Aß38 increase with at least 10%, more in particular a Aß38 increase with at least 20%. […]

By melting point is commonly meant the temperature of the solid-liquid transition.

Molecule `Cc1cn(-c2ccc3n(c2=O)C[C@@H](C)N(Cc2coc4cc(C(F)(F)F)c(F)cc24)C3=O)cn1` [Compound 85] gave a melting point of 226 °C. Further, the response vs control in vivo at 30 mg/kg in data set [1] stood at 51%. Also, in data set [2], the response vs control in vivo at 30 mg/kg is 69%. Further, in data set [3], the response vs control in vivo at 30 mg/kg amounted to 194%.
